Data published in patent US12338243B2, “P2X7 modulators” (JANSSEN PHARMACEUTICA NV, priority 2014, dated 2025).
pIC50: −log10 of the molar value.

Assays:
[1] = Biodistribution studies of radiotracer in healthy female Wistar rats; format: in vivo; settings: for % ID blood: blood mass assumed 7% of body mass; for SUV blood / % ID carcass / % ID cerebellum / SUV cerebellum / % ID cerebrum / SUV cortex / % ID heart / SUV hippocampus / % ID intestines / % ID kidneys / % ID liver / % ID lungs / SUV rest of cerebrum / % ID spleen + pancreas / % ID stomach / SUV striatum / % ID urine / SUV whole cerebrum: mean ± SD, n = 3; for % ID bone: calculated to estimated total bone tissue (% ID/g bone * body mass* 0.12)
Description: HPLC analysis was performed on a LaChrom Elite HPLC system (Hitachi, Armstadt, Germany) connected to a UV spectrometer set at 220 nm. For the analysis of radiolabeled compounds, the HPLC eluate, after passage through the UV detector, was led over a shielded 3-inch NaI(Tl) scintillation detector connected to a multichannel analyser (Gabi box, Raytest, Straubenhardt, Germany). The output signal was recorded and analysed using a GINA Star data acquisition system (Raytest, Straubenhardt, Germany). Radioactivity in samples of biodistribution studies, cell uptake experiments and radiometabolite analysis was quantified using an automated gamma counter equipped with a 3-inch NaI(Tl) well crystal coupled to a multichannel analyser (Wallac 2480 Wizard, Wallac, Turku, Finland). Results were corrected for background radiation, physical decay and counter dead time.
Animals were housed in individually ventilated cages in a thermoregulated (˜22° C.), humidity-controlled facility under a 12 h/12 h light/dark cycle with access to food and water ad libitum. All animal experiments were conducted according to the Belgian code of practice for the care and use of animals, after approval from the KU Leuven University Ethics Committee for Animals.
The biodistribution studies were performed in healthy female Wistar rats (body weight, 185-220 g) at 2, 30 and 60 min after tracer injection (n=3/time point). […] The animals were sacrificed by decapitation at the indicated time points. Blood and major organs were collected in tared tubes and weighed. The radioactivity in the dissected organs and blood was counted using an automated gamma counter. For calculation of total blood radioactivity, blood mass was assumed to be 7% of the body mass.

[2] = molecular target: T1, P2X7 (Homo sapiens, UniProt Q99572); assay: Ca2+ flux (FLIPR) in 1321N1 cells expressing recombinant human P2X7 channel; format: cell-based; set-up: expressed in transfected cells; host or cells: 1321N1 cells; settings: 250 μM BzATP
T1 sequence (Q99572 1-595): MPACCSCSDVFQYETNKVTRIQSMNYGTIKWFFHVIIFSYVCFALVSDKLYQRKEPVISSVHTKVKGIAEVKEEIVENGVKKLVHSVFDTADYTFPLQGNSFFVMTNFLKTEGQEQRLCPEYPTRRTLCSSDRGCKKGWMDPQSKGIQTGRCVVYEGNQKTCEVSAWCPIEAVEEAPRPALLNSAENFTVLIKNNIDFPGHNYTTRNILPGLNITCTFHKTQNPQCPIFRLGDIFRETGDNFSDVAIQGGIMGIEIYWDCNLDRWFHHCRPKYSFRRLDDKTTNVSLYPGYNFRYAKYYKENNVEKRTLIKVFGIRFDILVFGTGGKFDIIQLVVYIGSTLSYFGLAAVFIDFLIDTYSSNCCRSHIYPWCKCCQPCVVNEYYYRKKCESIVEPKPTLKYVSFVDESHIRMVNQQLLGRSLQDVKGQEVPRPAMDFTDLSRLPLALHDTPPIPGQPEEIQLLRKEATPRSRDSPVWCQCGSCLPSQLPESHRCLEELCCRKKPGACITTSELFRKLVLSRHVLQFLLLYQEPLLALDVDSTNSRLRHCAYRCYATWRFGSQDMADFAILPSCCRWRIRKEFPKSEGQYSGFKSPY
Description: P2X7 Antagonism in Recombinant Human P2X7 Cells or Recombinant Rat P2X7 Cells: (a) Ca^2+ Flux and (b) Radioligand Binding
(a) Ca^2+ flux: 1321N1 cells expressing the recombinant human or rat P2X7 channel was cultured in HyQ DME/(HyClone/Dulbecco's Modified Eagle Medium) high glucose supplemented with 10% Fetal Bovine Serum (FBS) and appropriate selection marker. Cells were seeded at a density of 25000 cells/well (96-well clear bottom black walled plates) in 100 μl volume/well. On the day of the experiment, cell plates were washed with assay buffer, containing (in mM): 130 NaCl, 2 KCl, 1 CaCl2), 1 MgCl2, 10 HEPES, 5 glucose; pH 7.40 and 300 mOs. After the wash, cells were loaded with the Calcium-4 dye (Molecular Device) and incubated in the dark for 60 minutes. Test compounds were prepared at 250× the test concentration in neat DMSO. Intermediate 96-well compound plates were prepared by transferring 1.2 μL of the compound into 300 μL of assay buffer. A further 3× dilution occurred when transferring 50 μL/well of the compound plate to 100 μL/well in the cell plate. Cells were incubated with test compounds and dye for 30 minutes. […] The fluorescence change was measured 180 seconds after adding the agonist.

[3] = molecular target: T2, rat P2X7 (Rattus norvegicus, UniProt Q64663); assay: Ca2+ flux (FLIPR) in 1321N1 cells expressing recombinant rat P2X7 channel; settings: FLIPR (rat) IC50 (μM), 250 μM BzATP
T2 sequence (Q64663 1-595): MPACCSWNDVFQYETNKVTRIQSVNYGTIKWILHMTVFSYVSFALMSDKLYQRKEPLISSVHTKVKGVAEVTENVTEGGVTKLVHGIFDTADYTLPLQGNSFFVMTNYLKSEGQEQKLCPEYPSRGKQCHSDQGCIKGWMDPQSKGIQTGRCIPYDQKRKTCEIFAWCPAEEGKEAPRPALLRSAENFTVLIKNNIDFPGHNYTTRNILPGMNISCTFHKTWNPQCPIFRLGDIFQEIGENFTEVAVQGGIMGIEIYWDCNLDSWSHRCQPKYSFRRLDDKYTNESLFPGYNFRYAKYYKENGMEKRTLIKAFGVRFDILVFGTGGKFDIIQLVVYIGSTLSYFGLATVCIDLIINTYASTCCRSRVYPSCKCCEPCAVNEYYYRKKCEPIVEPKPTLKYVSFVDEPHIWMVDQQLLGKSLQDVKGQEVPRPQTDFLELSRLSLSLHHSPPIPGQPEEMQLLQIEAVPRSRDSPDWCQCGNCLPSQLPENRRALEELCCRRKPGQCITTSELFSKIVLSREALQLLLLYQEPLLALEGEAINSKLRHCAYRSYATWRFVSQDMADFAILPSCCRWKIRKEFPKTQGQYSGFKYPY

For `C[C@H]1Cn2c(nnc2-c2cc([18F])ccn2)CN1C(=O)c1cccc(Cl)c1Cl` [[^18F]68, (S)-(2,3-dichlorophenyl)(3-(4-[^18F]fluoropyridin-2-yl)-6-methyl-5,6-dihydro-[1,2,4]triazolo[4,3-a]pyrazin-7(8H)-yl)methanone], the “% ID blood” value ([1]; 2 min after tracer injection) was 6.8 ± 0.6 % ID, the SUV blood ([1]; 2 min after tracer injection) was 0.97 ± 0.08 and the “% ID blood” value ([1]; 30 min after tracer injection) was 4.3 ± 0.3 % ID. For the same molecule, the SUV blood ([1]; 30 min after tracer injection) was 0.61 ± 0.04, the “% ID blood” value ([1]; 60 min after tracer injection) was 2.0 ± 0.5 % ID and the SUV blood ([1]; 60 min after tracer injection) was 0.29 ± 0.07. For the same molecule, the “% ID bone” value ([1]; 2 min) was 8.8 ± 0.8 % ID, the “% ID bone” value ([1]; 30 min) was 44.5 ± 3.8 % ID and the “% ID bone” value ([1]; 60 min) was 64.5 ± 5.9 % ID. For the same molecule, the “% ID carcass” value ([1]; 2 min after tracer injection) was 40.8 ± 0.8 % ID, the “% ID carcass” value ([1]; 30 min after tracer injection) was 56.6 ± 2.8 % ID and the “% ID carcass” value ([1]; 60 min after tracer injection) was 60.4 ± 2.3 % ID. The “% ID cerebellum” value ([1]; 2 min after tracer injection) was 0.1 ± 0.0 % ID, the SUV cerebellum ([1]; 2 min after tracer injection) was 1.21 ± 0.22 and the “% ID cerebellum” value ([1]; 30 min after tracer injection) was 0.0 ± 0.0 % ID. The SUV cerebellum ([1]; 30 min after tracer injection) was 0.33 ± 0.07, the “% ID cerebellum” value ([1]; 60 min after tracer injection) was 0.0 ± 0.0 % ID and the SUV cerebellum ([1]; 60 min after tracer injection) was 0.38 ± 0.08. The “% ID cerebrum” value ([1]; 2 min after tracer injection) was 0.6 ± 0.0 % ID, the “% ID cerebrum” value ([1]; 30 min after tracer injection) was 0.1 ± 0.0 % ID and the “% ID cerebrum” value ([1]; 60 min after tracer injection) was 0.1 ± 0.0 % ID. It also gave an SUV cortex ([1]; 2 min after tracer injection) of 1.27 ± 0.13, an SUV cortex ([1]; 30 min after tracer injection) of 0.94 ± 0.29 and an SUV cortex ([1]; 60 min after tracer injection) of 0.69 ± 0.17. The “% ID heart” value ([1]; 2 min after tracer injection) was 0.9 ± 0.1 % ID, the “% ID heart” value ([1]; 30 min after tracer injection) was 0.2 ± 0.0 % ID and the “% ID heart” value ([1]; 60 min after tracer injection) was 0.1 ± 0.0 % ID. It also gave an SUV hippocampus ([1]; 2 min after tracer injection) of 1.11 ± 0.10, an SUV hippocampus ([1]; 30 min after tracer injection) of 0.23 ± 0.04 and an SUV hippocampus ([1]; 60 min after tracer injection) of 0.19 ± 0.03. For the same molecule, the “% ID intestines” value ([1]; 2 min after tracer injection) was 10.6 ± 2.1 % ID, the “% ID intestines” value ([1]; 30 min after tracer injection) was 20.9 ± 6.0 % ID and the “% ID intestines” value ([1]; 60 min after tracer injection) was 11.2 ± 0.6 % ID. The “% ID kidneys” value ([1]; 2 min after tracer injection) was 3.3 ± 0.5 % ID, the “% ID kidneys” value ([1]; 30 min after tracer injection) was 1.1 ± 0.2 % ID and the “% ID kidneys” value ([1]; 60 min after tracer injection) was 0.9 ± 0.1 % ID. The “% ID liver” value ([1]; 2 min after tracer injection) was 34.6 ± 2.4 % ID, the “% ID liver” value ([1]; 30 min after tracer injection) was 7.5 ± 0.6 % ID and the “% ID liver” value ([1]; 60 min after tracer injection) was 3.61 ± 0.3 % ID. For the same molecule, the “% ID lungs” value ([1]; 2 min after tracer injection) was 1.6 ± 0.1 % ID, the “% ID lungs” value ([1]; 30 min after tracer injection) was 0.7 ± 0.1 % ID and the “% ID lungs” value ([1]; 60 min after tracer injection) was 0.6 ± 0.2 % ID. The “SUV rest of cerebrum” value ([1]; 2 min after tracer injection) was 1.20 ± 0.11, the “SUV rest of cerebrum” value ([1]; 30 min after tracer injection) was 0.31 ± 0.06 and the “SUV rest of cerebrum” value ([1]; 60 min after tracer injection) was 0.25 ± 0.04. For the same molecule, the “% ID spleen + pancreas” value ([1]; 2 min after tracer injection) was 1.3 ± 0.2 % ID, the “% ID spleen + pancreas” value ([1]; 30 min after tracer injection) was 0.3 ± 0.1 % ID and the “% ID spleen + pancreas” value ([1]; 60 min after tracer injection) was 0.2 ± 0.0 % ID. For the same molecule, the “% ID stomach” value ([1]; 2 min after tracer injection) was 1.5 ± 0.5 % ID, the “% ID stomach” value ([1]; 30 min after tracer injection) was 1.6 ± 0.9 % ID and the “% ID stomach” value ([1]; 60 min after tracer injection) was 10.7 ± 3.3 % ID. For the same molecule, the SUV striatum ([1]; 2 min after tracer injection) was 1.19 ± 0.13, the SUV striatum ([1]; 30 min after tracer injection) was 0.24 ± 0.05 and the SUV striatum ([1]; 60 min after tracer injection) was 0.19 ± 0.03. For the same molecule, the “% ID urine” value ([1]; 2 min after tracer injection) was 0.1 ± 0.0 % ID, the “% ID urine” value ([1]; 30 min after tracer injection) was 8.4 ± 1.8 % ID and the “% ID urine” value ([1]; 60 min after tracer injection) was 8.4 ± 1.8 % ID. It also gave an SUV whole cerebrum ([1]; 2 min after tracer injection) of 1.20 ± 0.11, an SUV whole cerebrum ([1]; 30 min after tracer injection) of 0.31 ± 0.06 and an SUV whole cerebrum ([1]; 60 min after tracer injection) of 0.25 ± 0.04.
In the case of `CCc1nnc2n1CCN(C(=O)c1cccc(C(F)(F)F)c1Cl)[C@H]2c1ccccc1` [Example 87, (S)-(2-chloro-3-(trifluoromethyl)phenyl)(3-ethyl-8-phenyl-5,6-dihydro-[1,2,4]triazolo[4,3-a]pyrazin-7(8H)-yl)methanone], the pIC50 [2] was 5.42 and the IC50 [3] was 9.93 µM.
With `C[C@H]1Cn2c(nnc2-c2ncc(F)cn2)CN1C(=O)c1cccc(C(F)(F)F)c1Cl` [Example 74] the IC50 [3] was 0.0101 µM.
`CC1c2nnc(-c3ccccn3)n2CCN1C(=O)c1cccc(Cl)c1Cl` (centres unmarked) [Example 1, (2,3-dichlorophenyl)(8-methyl-3-(pyridin-2-yl)-5,6-dihydro-[1,2,4]triazolo[4,3-a]pyrazin-7(8H)-yl)methanone] showed an IC50 [3] of 1.21 µM.
`C[C@H]1Cn2c(nnc2-c2ccc(F)cc2F)CN1C(=O)c1cccc(Cl)c1Cl` [Example 50, (S)-(2,3-dichlorophenyl)(3-(2,4-difluorophenyl)-6-methyl-5,6-dihydro-[1,2,4]triazolo[4,3-a]pyrazin-7(8H)-yl)methanone] gave an IC50 [3] of 1.68 µM.
